Measurements taken from US9920088B2, “Triterpene derivative and its anti-influenza use” (Peking University, priority 2012, dated 2018).
Read-outs that look alike come from different tables or passages of the source.

What was measured:
in vitro = details: dog
B/ShenZhen/155/2005 = assay: CPE reduction assay, B/SZ/155; assay type: cell-based; details: Influenza B virus, B/SZ/155, CPE
[1] = tested on: influenza virus A/WSN/33(H1N1); assay: Cytopathic effect (CPE) inhibition assay, WSN virus in MDCK cells; assay type: cell-based; details: for Viral Infectivity (%) / anti-influenza virus activity: 50 μM; for Viral Infectivity (%): WSN MOI=1, 48 h, lower = better inhibition; for anti-influenza virus activity: WSN, CPE
[2] = tested on: different influenza viruses; assay: CPE reduction assays on different influenza viruses; assay type: cell-based, influenza A virus and influenza B virus; details: PR/8, LN/1109, JX/312, HN/1222, B/SZ/155
MDCK cells = details: dog, 48 h, 50 μM
[3] = tested on: A/JiangXi-DongHu/312/2006 (H3N2); assay: microbe, parasite or virus in culture; assay type: cell-based, influenza A virus
[4] = tested on: A/Puerto Rico/8/34 (H1N1); assay: CPE reduction assay, PR/8 (H1N1); assay type: cell-based; details: Influenza A virus

Compound	Viral Infectivity (%) ([1]; Table 8)	anti-influenza virus activity [1]	Cell viability (%) (MDCK cells)	Viral Infectivity (%) ([1]; Table 6)	Cell viability(%) (MDCK cells)	also measured
CC1(C)CC[C@@]2(C(=O)N[C@H]3OC(CO)[C@@H](O)C(O)C3O)C(C1)C1=CCC3[C@@]4(C)CC[C@H](O)C(C)(C)C4CC[C@@]3(C)[C@]1(C)C[C@H]2O (stereo partly drawn) [Compound Y2, 3β,16α-dihydroxy-olean-12-en-28-oic acid-28-N-(β-D-galactoside)]	17.5	significant anti-influenza virus activity	105.0			CC50 at 48 h (in vitro): > 100 µM; EC50 (B/ShenZhen/155/2005): > 22.2 µM; inhibition effect on different influenza viruses [2]: various extent of inhibition effect; EC50 [3]: > 22.2 µM; EC50 ([4]; PR/8 (H1N1), CPE, read-out: EC50): 6.22 ± 0.83 µM
CC(=O)OCC1O[C@H](OC(=O)[C@]23CCC(C)(C)C[C@H]2C2=CC[C@@H]4[C@@]5(C)CC[C@H](O)C(C)(C)C5CC[C@@]4(C)[C@]2(C)CC3O)C(OC(C)=O)C(OC(C)=O)[C@H]1OC(C)=O (stereo partly drawn) [Compound Q1, 3β,16α-dihydroxy-olean-12-en-28-oic acid-28-O-(2,3,4,6-tetra-O-acetyl-β-D-glucoside)]		some anti-influenza virus activity		78.7	110.2	
NC(=O)c1ncn([C@@H]2O[C@H](CO)[C@@H](O)[C@H]2O)n1 [RBV, ribavirin, reference compound]						EC50 (B/ShenZhen/155/2005): 1.32 ± 0.6 µM; EC50 ([1]; H1N1|WSN, MDCK, 48 h): 42.7 µM; EC50 ([3]; Influenza A virus, H3N2): 4.19 ± 0.35 µM; EC50 [4]: 4.02 ± 1.27 µM
CC(=O)OC1C(OC(C)=O)[C@H](OC(C)=O)CO[C@@H]1OC(=O)[C@]12CCC(C)(C)C[C@H]1C1=CC[C@@H]3[C@@]4(C)CC[C@H](O)C(C)(C)[C@@H]4CC[C@@]3(C)[C@]1(C)CC2O (stereo partly drawn) [Compound Q5, 3β,16α-dihydroxy-olean-12-en-28-oic acid-28-O-(2,3,4-tri-O-acetyl-β-D-arabinoside)]				107.5	100.9	
CC(=O)OCC1O[C@H](NC(=O)[C@]23CCC(C)(C)CC2C2=CCC4[C@@]5(C)CC[C@H](O)C(C)(C)C5CC[C@@]4(C)[C@]2(C)CC3)C(OC(C)=O)C(OC(C)=O)[C@H]1OC(C)=O (stereo partly drawn) [Compound Y7, 3β-hydroxy-olean-12-en-28-oic acid-28-N-(2,3,4,6-tetra-O-acetyl-β-D-mannoside)]	17.4	significant anti-influenza virus activity	82.3			
CC(=O)OCC1O[C@H](NC(=O)[C@]23CCC(C)(C)CC2C2=CCC4[C@@]5(C)CCC(=O)C(C)(C)C5CC[C@@]4(C)[C@]2(C)CC3=O)C(OC(C)=O)C(OC(C)=O)[C@@H]1OC(C)=O (stereo partly shown) [Compound Y3]	16.3	significant anti-influenza virus activity	80.8			
CC(=O)OCC1O[C@@H](O[C@H]2C(COC(C)=O)O[C@H](OC(=O)[C@]34CCC(C)(C)C[C@H]3C3=CC[C@@H]5[C@@]6(C)CC[C@H](O)C(C)(C)[C@@H]6CC[C@@]5(C)[C@]3(C)CC4O)C(OC(C)=O)C2OC(C)=O)C(OC(C)=O)C(OC(C)=O)[C@H]1OC(C)=O (stereo partly drawn) [Compound Q12, 3β,16α-dihydroxy-olean-12-en-28-oic acid-28-O-(hepta-O-acetyl-β-D-maltoside)]		some anti-influenza virus activity		80.1	93.3	
CC1(C)CC[C@]2(C(=O)N[C@H]3OC(CO)[C@@H](O)C(O)C3O)C(=O)C[C@]3(C)C(=CCC4[C@@]5(C)CCC(=O)C(C)(C)C5CC[C@]43C)C2C1 (stereo partly drawn) [Compound Y4, 3,16-dione-olean-12-en-28-oic acid-28-N-(β-D-galactoside)]	31.1		98.5			
